# Source: patent US10710986B2, “PD-1/PD-L1 inhibitors” (Gilead Sciences, Inc., priority 2018, dated 2020)
# Target: PD-1/PD-L1 (Homo sapiens (Human), UniProt Q9NZQ7)
# Assay: PD-1/PD-L1 biochemical protein-protein interaction assay (ALPHA)
# Details: 0.3 nM His tagged PD-L1, 2.5 nM biotinylated Fc-PD-1, 60 minutes at 25° C., read-out: IC50 PD-L1-PD1
# PD-1/PD-L1, sequence (Q9NZQ7 19-238): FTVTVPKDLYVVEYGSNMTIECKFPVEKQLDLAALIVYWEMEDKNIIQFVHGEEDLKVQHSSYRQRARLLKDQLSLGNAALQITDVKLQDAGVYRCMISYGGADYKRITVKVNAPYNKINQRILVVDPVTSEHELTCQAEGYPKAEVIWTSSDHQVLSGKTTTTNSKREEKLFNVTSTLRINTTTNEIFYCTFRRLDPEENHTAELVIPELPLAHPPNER
row,IC50 [nM],SMILES
1,0.238,COc1nc(-c2cccc(-c3cccc(-c4cnc(CN(C)C[C@@H]5CCC(=O)N5)c(OC)n4)c3Cl)c2Cl)cnc1CN(C)C[C@@H]1CCC(=O)N1 [compound 327]
2,4.04,COc1nc(-c2cccc(-c3cccc(-c4cnc(CN(CC5CC5)C[C@@H]5CCC(=O)N5)c(OC)n4)c3Cl)c2Cl)cnc1CN(CC1CC1)C[C@@H]1CCC(=O)N1 [compound 328]
3,0.955,COc1nc(-c2cccc(-c3cccc(-c4cnc(CN(CC5CC5)C[C@@H]5CCC(=O)N5)c(OC)n4)c3Cl)c2Cl)cnc1CNC[C@@H]1CCC(=O)N1 [compound 329]
4,5.68,COc1nc(-c2cccc(-c3cccc(-c4cnc(CNC[C@@H]5C[C@@H](CC(F)(F)F)C(=O)N5)c(OC)n4)c3Cl)c2Cl)cnc1CNC[C@@H]1C[C@@H](CC(F)(F)F)C(=O)N1 [compound 330]
5,0.669,COc1nc(-c2cccc(-c3cccc(-c4cnc(CNC[C@@H]5CC6(CC6)C(=O)N5)c(OC)n4)c3Cl)c2Cl)cnc1CNC[C@@H]1CC2(CC2)C(=O)N1 [compound 331]
6,0.743,COc1nc(-c2cccc(-c3cccc(-c4cnc(CN5[C@@H](C)COC[C@@H]5C)c(OC)n4)c3Cl)c2Cl)cnc1CNC[C@@H]1CCC(=O)N1 [compound 332]
7,0.171,COc1nc(-c2cccc(-c3cccc(-c4cnc(CN[C@@H]5CCN(C6COC6)C5)c(OC)n4)c3Cl)c2Cl)cnc1CNC[C@@H]1CCC(=O)N1 [compound 333]
8,0.246,COc1nc(-c2cccc(-c3cccc(-c4cnc(CN[C@@H]5CCOC[C@H]5O)c(OC)n4)c3Cl)c2Cl)cnc1CNC[C@@H]1CCC(=O)N1 [compound 334]
9,0.172,COc1nc(-c2cccc(-c3cccc(-c4cnc(CN[C@H]5CCOC[C@@H]5O)c(OC)n4)c3Cl)c2Cl)cnc1CNC[C@@H]1CCC(=O)N1 [compound 335]
10,0.137,COc1nc(-c2cccc(-c3cccc(-c4cnc(CN[C@H]5COCC[C@@H]5O)c(OC)n4)c3Cl)c2Cl)cnc1CNC[C@@H]1CCC(=O)N1 [compound 336]
11,1.1,COc1nc(-c2cccc(-c3cccc(-c4cnc(CNC[C@@H]5CCC(=O)N5)c(OC)n4)c3Cl)c2Cl)cnc1CNCc1ccc(S(N)(=O)=O)s1 [compound 337]
12,0.565,COc1nc(-c2cccc(-c3cccc(-c4cnc(CNC[C@@H]5CCC(=O)N5)c(OC)n4)c3Cl)c2Cl)cnc1CNCc1ncccc1O [compound 338]
13,0.192,COc1nc(-c2cccc(-c3cccc(-c4cnc(CN[C@@H]5COCC[C@H]5O)c(OC)n4)c3Cl)c2Cl)cnc1CNC[C@@H]1CCC(=O)N1 [compound 339]
14,0.118,COCCNCc1ncc(-c2cccc(-c3cccc(-c4cnc(CNC[C@@H]5CCC(=O)N5)c(OC)n4)c3Cl)c2Cl)nc1OC [compound 340]
15,0.094,COc1nc(-c2cccc(-c3cccc(-c4cnc(CN[C@H]5C[C@@H](CO)C5)c(OC)n4)c3Cl)c2Cl)cnc1CNC[C@@H]1CCC(=O)N1 [compound 341]
16,0.107,COc1nc(-c2cccc(-c3cccc(-c4cnc(CN[C@H]5C[C@H](O)C5)c(OC)n4)c3Cl)c2Cl)cnc1CNC[C@@H]1CCC(=O)N1 [compound 342]
17,0.126,COc1nc(-c2cccc(-c3cccc(-c4cnc(CN[C@H]5C[C@@H](O)C5)c(OC)n4)c3Cl)c2Cl)cnc1CNC[C@@H]1CCC(=O)N1 [compound 343]
18,0.114,COc1nc(-c2cccc(-c3cccc(-c4cnc(CNC[C@H](C)O)c(OC)n4)c3Cl)c2Cl)cnc1CNC[C@@H]1CCC(=O)N1 [compound 344]
19,0.313,COc1nc(-c2cccc(-c3cccc(-c4cnc(CNC[C@@H](C)O)c(OC)n4)c3Cl)c2Cl)cnc1CNC[C@@H]1CCC(=O)N1 [compound 345]
20,0.323,COc1nc(-c2cccc(-c3cccc(-c4cnc(CN[C@@H](C)CO)c(OC)n4)c3Cl)c2Cl)cnc1CNC[C@@H]1CCC(=O)N1 [compound 346]

row,IC50 [nM],SMILES
1,0.245,COc1nc(-c2cccc(-c3cccc(-c4cnc(CN[C@H](C)CO)c(OC)n4)c3Cl)c2Cl)cnc1CNC[C@@H]1CCC(=O)N1 [compound 347]
2,0.138,COc1nc(-c2cccc(-c3cccc(-c4cnc(CN5CC(N6CC(O)C6)C5)c(OC)n4)c3Cl)c2Cl)cnc1CNC[C@@H]1CCC(=O)N1 [compound 348]
3,0.389,COc1nc(-c2cccc(-c3cccc(-c4cnc(CN5CC(c6ccccn6)C5)c(OC)n4)c3Cl)c2Cl)cnc1CNC[C@@H]1CCC(=O)N1 [compound 349]
4,0.737,COc1nc(-c2cccc(-c3cccc(-c4cnc(CN5CC(c6ccccc6)C5)c(OC)n4)c3Cl)c2Cl)cnc1CNC[C@@H]1CCC(=O)N1 [compound 350]
5,0.283,COc1nc(-c2cccc(-c3cccc(-c4cnc(CN5CC(N6CCOCC6)C5)c(OC)n4)c3Cl)c2Cl)cnc1CNC[C@@H]1CCC(=O)N1 [compound 351]
6,4.63,COc1nc(-c2cccc(-c3cccc(-c4cnc(Cn5c(C)ccc5C)c(OC)n4)c3Cl)c2Cl)cnc1CNC[C@@H]1CCC(=O)N1 [compound 352]
7,0.064,COc1nc(-c2cccc(-c3cccc(-c4cnc(CN[C@@H]5CC[C@H](O)C5)c(OC)n4)c3Cl)c2Cl)cnc1CNC[C@@H]1CCC(=O)N1 [compound 353]
8,0.133,COc1nc(-c2cccc(-c3cccc(-c4cnc(CN[C@@H]5CC[C@@H](O)C5)c(OC)n4)c3Cl)c2Cl)cnc1CNC[C@@H]1CCC(=O)N1 [compound 354]
9,0.129,COc1nc(-c2cccc(-c3cccc(-c4cnc(CN[C@H]5CC[C@H](O)C5)c(OC)n4)c3Cl)c2Cl)cnc1CNC[C@@H]1CCC(=O)N1 [compound 355]
10,0.102,COc1nc(-c2cccc(-c3cccc(-c4cnc(CN[C@H]5CC[C@@H](O)C5)c(OC)n4)c3Cl)c2Cl)cnc1CNC[C@@H]1CCC(=O)N1 [compound 356]
11,0.096,COc1nc(-c2cccc(-c3cccc(-c4cnc(CN[C@H]5C[C@H](S(C)(=O)=O)C5)c(OC)n4)c3Cl)c2Cl)cnc1CNC[C@@H]1CCC(=O)N1 [compound 357]
12,0.141,COc1nc(-c2cccc(-c3cccc(-c4cnc(CN[C@H]5C[C@@H](S(C)(=O)=O)C5)c(OC)n4)c3Cl)c2Cl)cnc1CNC[C@@H]1CCC(=O)N1 [compound 358]
13,0.132,COc1nc(-c2cccc(-c3cccc(-c4cnc(CN[C@H]5CCOC5)c(OC)n4)c3Cl)c2Cl)cnc1CNC[C@@H]1CCC(=O)N1 [compound 359]
14,0.401,COc1nc(-c2cccc(-c3cccc(-c4cnc(CN[C@@H]5CCOC5)c(OC)n4)c3Cl)c2Cl)cnc1CNC[C@@H]1CCC(=O)N1 [compound 360]
15,0.13,COc1nc(-c2cccc(-c3cccc(-c4cnc(CN[C@H]5C[C@H](NC(C)=O)C5)c(OC)n4)c3Cl)c2Cl)cnc1CNC[C@@H]1CCC(=O)N1 [compound 361]
16,0.074,COc1nc(-c2cccc(-c3cccc(-c4cnc(CN[C@H]5C[C@@H](NC(C)=O)C5)c(OC)n4)c3Cl)c2Cl)cnc1CNC[C@@H]1CCC(=O)N1 [compound 362]
17,0.424,COc1nc(-c2cccc(-c3cccc(-c4cnc(CNC5CC6(C5)CS(=O)(=O)C6)c(OC)n4)c3Cl)c2Cl)cnc1CNC[C@@H]1CCC(=O)N1 [compound 363]
18,0.244,COc1nc(-c2cccc(-c3cccc(-c4cnc(CN[C@H]5C[C@H](OC)C5)c(OC)n4)c3Cl)c2Cl)cnc1CNC[C@@H]1CCC(=O)N1 [compound 364]
19,0.07,COc1nc(-c2cccc(-c3cccc(-c4cnc(CN[C@H]5C[C@@H](OC)C5)c(OC)n4)c3Cl)c2Cl)cnc1CNC[C@@H]1CCC(=O)N1 [compound 365]
